This passage reports TGI results from PubChem BioAssay (NCI).

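In this assay, cells in 96-well plates receive the compound at five concentrations for 48 hours. Endpoints are linearly interpolated between the surrounding concentrations. At the TGI there is no net growth.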

One test deals with COLO 205 colon. The test is described as follows: NCI tumour cell line growth inhibition, 48 h.
`Cc1ccc2c(c1)nc(N)n[n+]2[O-]` gave a TGI above 100 µM.
`O=C1CC(O)c2c1csc2Br` (configuration not stated) had a TGI of 59.9 µM.
`CCOC(=O)c1cc(C2(O)CCN(Cc3ccccc3)C2=O)c(-c2cc(C)no2)[nH]1` (configuration not stated) yielded a TGI above 100 µM.
Turning to `CCOC(=O)c1cc(=C2\CCN(CC(C)CC)C2=S)/c(=C(/O)CC)[nH]1` (configuration not stated), the TGI was found to be 24.1 µM.
Still for that read-out and setting: the same measure for `Cc1ccc2c(c1C)CC1(Cc3c(ccc4c3CCC4)C1=O)C2=O` (configuration not stated): above 100 µM.
`OCC1CCCC(n2cnc3c(=S)nc[nH]c32)O1` (configuration not stated) registered a TGI above 100 µM.
The same measure, in the same setting: the same measure for `CCCCc1c(O)nc(Nc2nc3ccccc3[nH]2)[nH]c1=O`: above 100 µM; for `O=C1CC2C=CC(O)C(C1)C2` (configuration not stated): above 100 µM; for `N#CC1=C(N)OC2=C(CSc3ccccc32)C1c1ccc(Br)cc1` (configuration not stated): 10.8 µM.
On the same count and under the same terms, to `CCC(=O)C(c1ccccc1)c1ccccn1` (configuration not stated) belongs above 100 µM.
Compound `Cc1ccc(-c2cc(N)n(-c3nc4c([nH]3)c(=O)n(C)c(=O)n4C)n2)cc1` displayed a TGI of 21.8 µM.
`Cc1sc2nc3n(c(=O)c2c1C)N=CN(c1ccccc1)C3` registered a TGI above 100 µM.
Regarding `CC(C)(C)OC(=O)NC(C)(C)C(=O)NCCC(=O)O`, the TGI is above 100 µM.
`CCOC(=O)CCC(NC(=O)c1ccc(OCc2nc3cc(C(F)(F)F)ccc3nc2-c2ccccc2)cc1)C(=O)OCC` (configuration not stated) gave a TGI of 32.3 µM.
The same measure, in the same setting: the same measure for `CC12CC(c3ccccc3O1)C(C(=O)Nc1ccc(F)cc1)C(=O)N2` (configuration not stated): above 100 µM.
In turn, `O=c1c2c3ccccc3[nH]c2c2cccc3c2n1CCC3` returned a TGI above 100 µM.
The same measure, in the same setting: the same measure for `c1ccc([P+](CCNCCNCC[P+](c2ccccc2)(c2ccccc2)c2ccccc2)(c2ccccc2)c2ccccc2)cc1`: above 100 µM; for `CCOC(=O)c1sc2nc(SC)nc3c2c1N=CN3c1ccc(Br)cc1`: above 100 µM; for `CCOC(=O)c1c(NC(=O)c2ccccc2)sc2c1CCCC2`: above 100 µM.
Turning to `CCOc1ccc(N/C(=C(/C(Cl)=C(/Cl)NCCN)[N+](=O)[O-])n2nnc3ccccc32)cc1`, the TGI amounted to 32.4 µM.
Regarding `CC(=O)NC1C(OCc2ccccc2)OC(CO)C(O)C1OCC(=O)N[C@@H](C)C(=O)N[C@H](CCC(=O)NCCNCCNc1c2ccccc2nc2cccc([N+](=O)[O-])c12)C(N)=O` (some centres not stated), the TGI is above 100 µM.
For `c1sc(NC2=NCCO2)c2c1CCCC2`, the TGI is above 100 µM.
Same read-out and setting: the same measure for `COc1cc(COC(=O)N[C@H](C(=O)O)C(C)(C)C)c([N+](=O)[O-])cc1OC`: above 100 µM; for `CCN(CC)CCn1c2cc3c(cc2c(=O)c2cccnc21)OCCO3`: above 10 µM.

A further test has as its system HOP-62 NSCLC. As to the kind of experiment: NCI tumour cell line growth inhibition, 48 h.
`Cc1ccc2c(c1)nc(N)n[n+]2[O-]` showed a TGI above 100 µM.
Still for that read-out and setting: to `O=C1CC(O)c2c1csc2Br` (configuration not stated) belongs above 100 µM; to `CCOC(=O)c1cc(C2(O)CCN(Cc3ccccc3)C2=O)c(-c2cc(C)no2)[nH]1` (configuration not stated), above 100 µM; to `OCC1CCCC(n2cnc3c(=S)nc[nH]c32)O1` (configuration not stated), above 100 µM.
The same measure, in the same setting: the same measure for `CCCCc1c(O)nc(Nc2nc3ccccc3[nH]2)[nH]c1=O`: above 100 µM.
Compound `O=C1CC2C=CC(O)C(C1)C2` (configuration not stated) registered a TGI above 100 µM.
Still for that read-out and setting: to `N#CC1=C(N)OC2=C(CSc3ccccc32)C1c1ccc(Br)cc1` (configuration not stated) belongs 32.7 µM.
In turn, `CCC(=O)C(c1ccccc1)c1ccccn1` (configuration not stated) registered a TGI above 100 µM.
The compound `Cc1ccc(-c2cc(N)n(-c3nc4c([nH]3)c(=O)n(C)c(=O)n4C)n2)cc1` displayed a TGI of 16.4 µM.
`Cc1sc2nc3n(c(=O)c2c1C)N=CN(c1ccccc1)C3`: the TGI came out at 65.3 µM.
Still for that read-out and setting: to `CC(C)(C)OC(=O)NC(C)(C)C(=O)NCCC(=O)O` belongs above 100 µM; to `CC12CC(c3ccccc3O1)C(C(=O)Nc1ccc(F)cc1)C(=O)N2` (configuration not stated), above 100 µM; to `O=c1c2c3ccccc3[nH]c2c2cccc3c2n1CCC3`, above 100 µM.
`c1ccc([P+](CCNCCNCC[P+](c2ccccc2)(c2ccccc2)c2ccccc2)(c2ccccc2)c2ccccc2)cc1` came in with a TGI above 100 µM.
Same read-out and setting: to `COc1ccc(-c2c(C#N)c(N)n(C3OC(CO)C(O)C(O)C3O)c(=S)c2C#N)cc1` (configuration not stated) belongs above 100 µM; to `CCOC(=O)c1sc2nc(SC)nc3c2c1N=CN3c1ccc(Br)cc1`, above 100 µM.
With `CCOc1ccc(N/C(=C(/C(Cl)=C(/Cl)NCCN)[N+](=O)[O-])n2nnc3ccccc32)cc1`, the TGI was above 100 µM.
The same measure, in the same setting: to `CC(=O)NC1C(OCc2ccccc2)OC(CO)C(O)C1OCC(=O)N[C@@H](C)C(=O)N[C@H](CCC(=O)NCCNCCNc1c2ccccc2nc2cccc([N+](=O)[O-])c12)C(N)=O` (some centres not stated) belongs above 100 µM; to `O=C1CC(C(O)CO)CC(=O)N1` (configuration not stated), above 100 µM; to `COc1cc(COC(=O)N[C@H](C(=O)O)C(C)(C)C)c([N+](=O)[O-])cc1OC`, above 100 µM.
For the compound `CCN(CC)CCn1c2cc3c(cc2c(=O)c2cccnc21)OCCO3`, the TGI was above 10 µM.

In the next test the test system is HOP-92 NSCLC. As to the kind of experiment: NCI tumour cell line growth inhibition, 48 h.
As to `CCOC(=O)c1cc(=C2\CCN(CC(C)CC)C2=S)/c(=C(/O)CC)[nH]1` (configuration not stated), the TGI turned out to be 39.6 µM.
On the same count and under the same terms, the same measure for `Cc1ccc2c(c1C)CC1(Cc3c(ccc4c3CCC4)C1=O)C2=O` (configuration not stated): above 100 µM; for `OCC1CCCC(n2cnc3c(=S)nc[nH]c32)O1` (configuration not stated): above 100 µM; for `N#CC1=C(N)OC2=C(CSc3ccccc32)C1c1ccc(Br)cc1` (configuration not stated): 21.5 µM.
Still for that read-out and setting: the same measure for `CCC(=O)C(c1ccccc1)c1ccccn1` (configuration not stated): above 100 µM; for `Cc1ccc(-c2cc(N)n(-c3nc4c([nH]3)c(=O)n(C)c(=O)n4C)n2)cc1`: 32.2 µM; for `Cc1sc2nc3n(c(=O)c2c1C)N=CN(c1ccccc1)C3`: 79.8 µM.
In turn, `CCOC(=O)CCC(NC(=O)c1ccc(OCc2nc3cc(C(F)(F)F)ccc3nc2-c2ccccc2)cc1)C(=O)OCC` (configuration not stated) displayed a TGI above 100 µM.
As to `O=c1c2c3ccccc3[nH]c2c2cccc3c2n1CCC3`, the TGI is above 100 µM.
On the same count and under the same terms, the same measure for `COc1ccc(-c2c(C#N)c(N)n(C3OC(CO)C(O)C(O)C3O)c(=S)c2C#N)cc1` (configuration not stated): above 100 µM; for `CCOC(=O)c1sc2nc(SC)nc3c2c1N=CN3c1ccc(Br)cc1`: above 100 µM; for `CC(=O)NC1C(OCc2ccccc2)OC(CO)C(O)C1OCC(=O)N[C@@H](C)C(=O)N[C@H](CCC(=O)NCCNCCNc1c2ccccc2nc2cccc([N+](=O)[O-])c12)C(N)=O` (some centres not stated): 66.5 µM.
`O=C1CC(C(O)CO)CC(=O)N1` (configuration not stated) returned a TGI above 100 µM.
Still for that read-out and setting: to `c1sc(NC2=NCCO2)c2c1CCCC2` belongs above 100 µM; to `COc1cc(COC(=O)N[C@H](C(=O)O)C(C)(C)C)c([N+](=O)[O-])cc1OC`, above 100 µM.
Same read-out and setting: the same measure for `CCN(CC)CCn1c2cc3c(cc2c(=O)c2cccnc21)OCCO3`: above 10 µM.

A further test has as its system NCI-H226 lung. As to the kind of experiment: NCI tumour cell line growth inhibition, 48 h.
For `Cc1ccc2c(c1)nc(N)n[n+]2[O-]`, the TGI is above 100 µM.
On the same count and under the same terms, to `CCOC(=O)c1cc(C2(O)CCN(Cc3ccccc3)C2=O)c(-c2cc(C)no2)[nH]1` (configuration not stated) belongs above 100 µM.
Same read-out and setting: to `CCOC(=O)c1cc(=C2\CCN(CC(C)CC)C2=S)/c(=C(/O)CC)[nH]1` (configuration not stated) belongs 45.3 µM; to `Cc1ccc2c(c1C)CC1(Cc3c(ccc4c3CCC4)C1=O)C2=O` (configuration not stated), above 100 µM; to `OCC1CCCC(n2cnc3c(=S)nc[nH]c32)O1` (configuration not stated), above 100 µM.
Still for that read-out and setting: to `CCCCc1c(O)nc(Nc2nc3ccccc3[nH]2)[nH]c1=O` belongs above 100 µM.
